# In US20160045531A1, “COMBINATION THERAPY FOR TREATING CANCER” (EPIZYME, INC., priority 2014, published 2016):
# Columns and labels:
# [1] = tested on: SKM-1 (non-MLL-rearranged AML); assay: Combination proliferation study with Compound A2 (Examples 2/3), SKM-1; format: cell-based, human; conditions: non-rearranged SKM-1 cell line
# Description: The HP-D300 digital dispenser (Tecan) was used to dispense compounds in a combinatorial matrix. […] Cell viability was measured via ATP content using CellTiter-Glo® (Promega).
# Viability was determined using CellTiter-Glo® (Promega).
# [2] = tested on: MOLM-13 cells; assay: Flow cytometric analysis of cell cycle and Annexin V, MOLM-13; format: cell-based, human
# Description: (§1) On Day 0 MOLM-13 cells are seeded at 3,000 cells/mL. On Day 7 and Day 10 MOLM-13 cells are counted and reseeded at 50,000 cells/mL. […] On Day 10 They were redosed again. On Day 14 the experiment was terminated.
# To evaluate the fraction of cells in each cell cycle, flow cytometric analysis was performed. FACS analysis for detection of cell death by apoptosis, and cell cycle was performed.
# Samples were analyzed using the Guava EasyCyte Plus System (Millipore). Cells for cell cycle analysis were pelleted by centrifugation at 200×g for 5 minutes at 4° C., washed twice with ice cold PBS then fixed with 70% ice cold ethanol. All samples were analyzed together at end of experiment. Following fixation cells were washed with PBS and stained with the Guava cell cycle reagent (Millipore 4500-0220) for 30 minutes. Samples were analyzed using the Guava EasyCyte Plus System (Millipore).
# [3] = tested on: MOLM-13 cells; assay: CD11b and CD14 expression by flow cytometry, MOLM-13; format: cell-based, human
# Description: as §1
# The cells were prepared by washing twice in PBS, followed by fixation in 4% formaldehyde for ten minutes at 37° C. After fixation cells were washed and blocked with blocking buffer for 10 minutes at room temperature. Cells were then incubated in presence of anti-CD14, anti-CD11b or anti-IgG antibody for 1 hour at room temperature while rotating. Cells were washed, re-suspended in PBS and 5,000 events were analyzed using ExpressPro software on the GuavaCyte Plus System.
# [4] = tested on: H3K79me2; conditions: cited from earlier work
# [5] = tested on: rat xenograft model of MLL-rearranged leukemia; conditions: cited from earlier work
# [6] = tested on: acute leukemia lines bearing MLL translocations; conditions: sparing lines without MLL gene translocations; cited from earlier work
# [7] = tested on: SKM-1 cells; assay: Proliferation assay and calculation of synergism (Example 5), SKM-1; conditions: non-MLL-rearranged leukemia cell line SKM-1
# Description: The acute myelogenous leukemia cell line MV4-11 (MLL-AF4) (CRL-9591) was obtained from American Type Culture Collection (ATCC), Manassas, Va. and both MOLM-13 (MLL-AF9) (ACC 554) and SKM-1 (ACC 547) cells were obtained from Leibniz Institute DSMZ-German Collection of Microorganisms and Cell Cultures, Braunschweig, Germany. MV4-11 cells were maintained in IMDM supplemented with 10% fetal bovine serum. MOLM-13 and SKM-1 cells were maintained in Roswell Park Memorial Institute medium (RPMI) supplemented with 10% fetal bovine serum. They were cultured in flasks or plates in a humidified 5% CO2 atmosphere.
# Proliferation studies were performed using MOLM-13, MV4-11 and SKM-1 cell lines in vitro to evaluate the cancer cell killing effect of a combination of two agents together on cell growth. Initial proliferation studies were performed to determine the IC50 values of a given compound in each cell line. The cell counts were measured by ATP quantitation using the Promega Cell Titer Glo kit and luminescence values correspond to the amount of ATP in a given well.
# These studies were performed to evaluate both the combinatorial effect of compounds on cell killing and the durability of the effect by washing out one of the agents.
# Compounds evaluated for synergy in the co-treatment phase were tested in a range which was bracketed around the IC50's. The compounds were plated to a 96 well plate in a matrix format which includes increasing concentrations of each drug in the combination in a constant ratio, in addition to the effect of each compound alone in the study. […] Maximum and minimum inhibition (DMSO alone) controls were used in each plate to calculate fraction affected (Fa) of a test well. DMSO concentration was kept at 0.1% v/v. The drug combination analysis was performed utilizing the Chou-Talalay method. Synergy was determined using the software package Calcusyn by Biosoft. The combination index (CI) is the term used to describe the level of synergy or antagonism in a given test system. A combination index less than one indicates synergy, and a CI greater than one indicates antagonism.
# The drug combination analysis was performed using the Chou-Talalay method. Graphs representing values of combination index (CI) versus Fractional effect (Fa) known as Fa-CI plots were generated and synergy was evaluated. Drug synergy was statistically defined by CI values less than 1, antagonism by CI>1 and additive effect by CI equal to 1.
smiles,measurement,setting,value
"CC(C)N(C[C@H]1O[C@@H](n2cnc3c(N)ncnc32)[C@H](O)[C@@H]1O)[C@H]1C[C@@H](CCc2nc3cc(C(C)(C)C)ccc3[nH]2)C1 [Compound A2, (2R,3R,4S,5R)-2-(6-amino-9H-purin-9-yl)-5-((((1r,3S)-3-(2-(5-(tert-butyl)-1H-benzo[d]imidazol-2-yl)ethyl)cyclobutyl) (isopropyl)amino)methyl) tetrahydrofuran-3,4-diol]",Single agent antiproliferative effect in SKM-1,[1],no effect alone
same,EC50,"[2]; Homo sapiens, 168 h, MOLM-13, single agent, 7 days, Annexin-V staining, read-out: Midpoint value (EC50) of decrease in total content of viable cells",364 ± 18 nM
same,"Apoptotic cells (Annexin-V staining), single agent","[2]; MOLM-13, after 7 days of treatment",concentration-dependent increase in apoptotic cells
same,"Apoptosis induction over 14 day course, single agent","[2]; MOLM-13, 156 nM Compound A2 or 63 nM Ara-C",much more robust induction of apoptosis
same,"Sub-G1 cell population, single agent","[2]; MOLM-13, 14 day treatment, 156 nM Compound A2 or 63 nM Ara-C","moderate, time-dependent increase in sub-G1 population"
same,"Differentiation markers CD11b and CD14, single agent",[3],time and concentration dependent up-regulation
same,Inhibition of intracellular DOT1L activity (H3K79 methylation),[4]; across a spectrum of AML cell lines,concentration-dependent inhibition of H3K79 methylation
same,Time for H3K79me2 to return to pretreatment levels after the latency period,[4]; after the 3-day latency period,4 days
same,Period without recovery of H3K79 methylation after wash out,[4]; after wash out of Compound A2,3 days
same,Depletion of cellular levels of H3K79me2,[4]; four days of treatment,> 80%
same,Tumor response in xenograft,[5],sustained tumor regressions
same,Cell killing in vitro,[6],promoted cell killing
same,Single agent antiproliferative activity in SKM-1,[7],no single agent activity
